Patent US6114391A, “α-amino acid amides, preparation thereof and the therapeutical use thereof” (priority 1996, dated 2000)
Entries after “also recorded” stand apart in the source; their conditions may differ. Where two headings read alike, the source gives them in different places.

Key:
convulsions = details: WO 95/18617 and WO 96/21640; cited from earlier work
[1] = system: tonic hind limb extensions (maximal electroshock), mouse; test: maximal electroshock (MES) test in mouse, suppression of tonic hind limb extensions; assay type: in vivo; details: for ED50: po, 1 h, read-out: ED50 MES
[2] = horizontal screen test in mouse (impaired motor function, neurotoxicity; therapeutic index); assay type: in vivo; details: po, mouse
Procedure: (§1) In this model mice are placed individually on top of a squire wire screen which is mounted horizontally on a metal rod, which is then rotated 180° so that mice are on the bottom of the screens. Impairment of the motor function is observed from the number of animals that falls from the screen or fail to climb to the top of the screens. The medial neurological toxic dose (TD50) is than calculated as above. The ratio of TD50 and ED50 refers to the therapeutic index (T.I.) for each compound. The T.I. is used to show a useful separation between neurotoxicity and antiepileptic activity. The larger the T.I. would indicate a better separation between the above activities and a good profile as anticonvulsants.

motor function, mouse = test: as above; assay type: in vivo; details: for T.I. (therapeutic index): ratio of TD50 (horizontal screen) and ED50 (MES), mouse p.o.; for T.I. (in words) / neurotoxicity / impairment of motor coordination (in words): mouse; for T.I. (in words): TD50/ED50; for neurotoxicity / impairment of motor coordination (in words): p.o., horizontal screen
Procedure: as §1

[3] = system: tonic hind limb extensions (maximal electroshock), rat; test: maximal electroshock (MES) test in rat, incl. time course of anticonvulsant activity; assay type: in vivo; details: for Duration of action (time at which the protection is statistically significant) / Peak of activity (time of the maximal effect): MES, equiactive dose; for Duration of action (time at which the protection is statistically significant) / Peak of activity (time of the maximal effect) / ED50 / anticonvulsant activity in rat MES (in words): rat; for Duration of action (time at which the protection is statistically significant) / Peak of activity (time of the maximal effect) / anticonvulsant activity in rat MES (in words): p.o.; for ED50: po
Procedure: The compounds of the invention were evaluated in some pharmacological tests in order to investigate their potential anticonvulsant activity. To this end, compounds were screened in the maximal electroshock (MES) test. This model is widely used to assess the efficacy of antiepileptic agents against generalized and partial seizures. This study was performed in both rat and mouse by using the experimental procedure described in W. Losher et al., Epilepsy Res., 2 (1988), 145-181. Briefly, a 60 Hz alternate current (mice 50 mA, rats 150 mA) was delivered for 0.2 sec through corneal electrods by means of an electrical stimulator. […] Groups of 10 animals per dose were used and the ED50 was calculated from the dose-effect curve accordingly to Litchfield and Wilcoxon (J. Pharmacol. Exp. Ther., 96 (1949), 99-113).
In the rat MES model only the time course of anticonvulsant activity was evaluated. Groups of 10 rats were treated at their equiactive dose 30, 60, 120, 240, 360 and 480 min before the establishment of the electroshock. The peak of anticonvulsant activity and the duration of action were then evaluated.

[4] = system: tonic convulsions induced by bicuculline, mouse; test: bicuculline-induced tonic convulsions in mouse; assay type: in vivo; details: for anticonvulsant activity against bicuculline (in words): p.o.; for ED50: po, bicuculline s.c.
Procedure: Further to the MES test in mouse, some compounds were also evaluated in the MES test in rat and in a chemical model of tonic convulsions induced by bicuculline accordingly to the procedure described in Swinyard E. A. et al., Antiepileptic Drugs, 3rd Edition, Raven Press, New York (1989).
As reference compound FCE 26743 (S)-2-(4-(3-fluorobenzyloxy)benzylamino)propanamide was used, disclosed in the prior art in EP-B1-0400495.

[5] = system: electro-shock convulsions, mouse; details: claimed in WO 94/22808; cited from earlier work
[6] = in vivo; cited from earlier work
[7] = mouse, p.o., 60 min after administration, HCl salts
[8] = horizontal screen test, p.o., HCl salts, read-out: TD50 Horizontal screen
[9] = in vivo, p.o., HCl salts, read-out: TD50 Horizontal screen

NC(=O)CNC1CCc2ccccc21 (racemic) [racemic N-(2-acetamido)-1-aminoindan, N-(2-acetamido)-1-aminoindan]
anticonvulsant activity (in words) (convulsions): not very effective | therapeutic index (in words) (convulsions): don't seem endowed with a particularly favorable therapeutic index

NC(=O)[C@@H](CO)N[C@H]1CCc2ccccc2C1 [CHF 2983, 3-hydroxy-2-(R)-(1,2,3,4-tetrahydro-naphthalen-2-(S)ylamino)propanamide]
anticonvulsant activity / potency in MES (in words) ([1]; mouse, p.o.): A good profile of anticonvulsant activity | ED50 [1, 7]: 43 mg/kg | TD50 [2, 8]: 1300 mg/kg | T.I. (therapeutic index) (motor function, mouse): 30 | Duration of action (time at which the protection is statistically significant) [3]: 2 h | Peak of activity (time of the maximal effect) [3]: 1 h | ED50 [3]: 19 mg/kg | anticonvulsant activity in rat MES (in words) [3]: more potent | anticonvulsant activity against bicuculline (in words) [4]: in the same order of potency of their MES anticonvulsant activity | ED50 [4]: 62 mg/kg

NC(=O)[C@H](CO)N[C@@H]1CCc2ccccc2C1 [CHF 2991]
anticonvulsant activity / potency in MES (in words) ([1]; mouse, p.o.): A good profile of anticonvulsant activity | ED50 [1, 7]: 38 mg/kg | TD50 [2, 8]: 1100 mg/kg | T.I. (therapeutic index) (motor function, mouse): 29

Cl.NC(=O)[C@H](CO)NC1Cc2ccccc2C1 [CHF 2993, (S)-3-hydroxy-2-(2-indanylamino)propanamide hydrochloride]
anticonvulsant activity / potency in MES (in words) ([1]; mouse, p.o.): equipotent in the MES test | ED50 [1, 7]: 44 mg/kg | TD50 [2, 9]: 1170 mg/kg | T.I. (therapeutic index) (motor function, mouse): 27 | duration of action (in words) ([3]; MES time course): longest duration of action | Duration of action (time at which the protection is statistically significant) [3]: 6 h | Peak of activity (time of the maximal effect) [3]: 3 h | ED50 [3]: 31 mg/kg | anticonvulsant activity in rat MES (in words) [3]: anticonvulsant activity close to that found in the same model in mouse | anticonvulsant activity against bicuculline (in words) [4]: in the same order of potency of their MES anticonvulsant activity | ED50 [4]: 65 mg/kg

NC(=O)[C@@H](CO)NC1Cc2ccccc2C1 [CHF 2996]
anticonvulsant activity / potency in MES (in words) ([1]; mouse, p.o.): equipotent in the MES test | ED50 [1, 7]: 34 mg/kg | TD50 [2, 8]: > 1500 mg/kg | T.I. (in words) (motor function, mouse): higher T.I. | neurotoxicity / impairment of motor coordination (in words) (motor function, mouse): low value of neurotoxicity | T.I. (therapeutic index) (motor function, mouse): 44 | Duration of action (time at which the protection is statistically significant) [3]: 2 h | Peak of activity (time of the maximal effect) [3]: 1 h | ED50 [3]: 32 mg/kg | anticonvulsant activity in rat MES (in words) [3]: anticonvulsant activity close to that found in the same model in mouse

Cl.NC(=O)CNC1Cc2ccccc2C1 [CHF 3381, 2-(2-indanylamino)acetamide hydrochloride]
ED50 ([1]; Mus musculus): 21 mg/kg | anticonvulsant activity / potency in MES (in words) ([1]; mouse, p.o., hydrochloride): more potent in inhibiting MES; also recorded: more potent as an anticonvulsant than the 1-aminoindane of the prior art | TD50 [2, 9]: 274 mg/kg | T.I. (in words) (motor function, mouse): higher T.I. than the prior art 1-aminoindane compound 2 | neurotoxicity / impairment of motor coordination (in words) (motor function, mouse): more neurotoxic | T.I. (therapeutic index) (motor function, mouse): 13

C[C@H](NC1Cc2ccccc2C1)C(N)=O [CHF 3431, (S) 2-(2-indanylamino)propionamide]
anticonvulsant activity / potency in MES (in words) ([1]; mouse, p.o.): more potent in inhibiting MES | ED50 [1, 7]: 22 mg/kg | TD50 [2, 8]: 251 mg/kg | neurotoxicity / impairment of motor coordination (in words) (motor function, mouse): more neurotoxic | T.I. (therapeutic index) (motor function, mouse): 11

CN(C1Cc2ccccc2C1)[C@H](CO)C(N)=O.Cl [CHF 3440, (R)-3-hydroxy-2-(N-methyl-2-indanylamino)propanamide hydrochloride]
anticonvulsant activity / potency in MES (in words) ([1]; mouse, p.o.): same anticonvulsant activity | ED50 [1, 7]: 35 mg/kg | TD50 [2, 9]: 689 mg/kg | neurotoxicity / impairment of motor coordination (in words) (motor function, mouse): increase of the neurotoxicity | T.I. (therapeutic index) (motor function, mouse): 20

C[C@H](NCc1ccc(OCc2cccc(F)c2)cc1)C(N)=O [FCE 26743, (S)-2-(4-(3-fluorobenzyloxy)benzylamino)propanamide, reference compound]
Duration of action (time at which the protection is statistically significant) [3]: 1 h | Peak of activity (time of the maximal effect) [3]: 0.5 h | ED50 [3]: 11 mg/kg | anticonvulsant activity in rat MES (in words) [3]: anticonvulsant activity close to that found in the same model in mouse | anticonvulsant activity against bicuculline (in words) [4]: in the same order of potency of their MES anticonvulsant activity | ED50 [4]: 20 mg/kg

CS(=O)(=O)O.NC(=O)C(CO)NCc1ccc(OCCCc2ccccc2)cc1 (stereo not shown) [FCE 28245, 3-hydroxy-2-(4-(3-phenylpropyloxy)benzylamino)propanamide methanesulphonate, reference compound]
ED50 [1, 7]: 180 mg/kg | TD50 ([2]; in vivo): 1670 mg/kg | T.I. (therapeutic index) (motor function, mouse): 9 | anticonvulsant activity in electro-shock convulsions (in words) [5]: claimed to be active

NC(=O)CN(CC(N)=O)C1CCc2ccccc21 (stereo not shown) [N,N-di-(2-acetamido)-1-aminoindan]
anticonvulsant activity (in words) (convulsions): not very effective | therapeutic index (in words) (convulsions): don't seem endowed with a particularly favorable therapeutic index

NC(=O)CNC1CCCc2ccccc21 (stereo not shown) [N-(2-acetamido)-1-aminotetralin]
anticonvulsant activity (in words) (convulsions): not very effective | therapeutic index (in words) (convulsions): don't seem endowed with a particularly favorable therapeutic index

NC(=O)CNC1CCc2ccc(F)cc21 (stereo not shown) [N-(2-acetamido)-6-fluoro-1-aminoindan]
anticonvulsant activity (in words) (convulsions): not very effective | therapeutic index (in words) (convulsions): don't seem endowed with a particularly favorable therapeutic index

CC(NC1CCc2ccccc21)C(N)=O (stereo not shown) [N-(2-propionamido)-1-aminoindan]
anticonvulsant activity (in words) (convulsions): not very effective | therapeutic index (in words) (convulsions): don't seem endowed with a particularly favorable therapeutic index

NC(=O)CN[C@H]1CCc2ccccc21 [TEVA Comp. 2, (S)-2-(indanylamino)acetamide, reference compound]
ED50 [1, 7]: 38 mg/kg | TD50 ([2]; in vivo): 299 mg/kg | T.I. (therapeutic index) (motor function, mouse): 8

NC(=O)N1c2ccccc2C=Cc2ccccc21 [carbamazepine]
therapeutic index (in words) [6]: smaller therapeutic indexes

O=C1NC(=O)C(c2ccccc2)(c2ccccc2)N1 [phenytoin]
therapeutic index (in words) [6]: smaller therapeutic indexes
